From patent US5656603A (Loyola University of Chicago, priority 1995, dated 1997)

Key:
[1] = molecular target: T1, purified bovine lung membrane-bound aminopeptidase P (Bos taurus, UniProt E1B735); assay: Aminopeptidase P inhibition, release of arginine from Arg-Pro-Pro (fluorescent assay); format: biochemical
T1 construct: from tissue; host or cells: bovine lung
T1 sequence (E1B735 22-673): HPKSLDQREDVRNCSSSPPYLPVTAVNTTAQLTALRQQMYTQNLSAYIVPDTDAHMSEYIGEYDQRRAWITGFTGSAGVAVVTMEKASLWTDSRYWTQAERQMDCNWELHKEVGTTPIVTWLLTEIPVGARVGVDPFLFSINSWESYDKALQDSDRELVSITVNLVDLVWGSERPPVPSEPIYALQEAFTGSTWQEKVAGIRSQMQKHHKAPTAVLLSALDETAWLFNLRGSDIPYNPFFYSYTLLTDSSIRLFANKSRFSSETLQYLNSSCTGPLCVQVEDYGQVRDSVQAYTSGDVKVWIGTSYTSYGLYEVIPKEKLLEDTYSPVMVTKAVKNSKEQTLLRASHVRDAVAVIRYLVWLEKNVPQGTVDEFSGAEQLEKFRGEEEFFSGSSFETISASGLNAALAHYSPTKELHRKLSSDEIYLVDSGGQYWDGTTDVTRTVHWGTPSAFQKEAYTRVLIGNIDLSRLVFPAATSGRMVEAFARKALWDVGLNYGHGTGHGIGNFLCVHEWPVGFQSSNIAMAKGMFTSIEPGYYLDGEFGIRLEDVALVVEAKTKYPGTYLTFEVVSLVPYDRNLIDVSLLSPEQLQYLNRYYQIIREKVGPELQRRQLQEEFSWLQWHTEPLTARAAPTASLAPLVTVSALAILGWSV
Experimental: The IC50 of the compound of the present invention in relation to aminopeptidase P was also determined. […] The specificity of the compound of the present invention for other aminopeptidases was similarly determined as described in the Experimental Procedures herein. […] The following enzymes had IC50 values>800 μM: aminopeptidase A, angiotensin converting enzyme, dipeptidyl-peptidase I-like activity, bestatin-sensitive/amastatin-insensitive membrane dipeptidase (29), microsomal dipeptidase, endopeptidase 24.11, endopeptidase 24.15, and prolyl oligopeptidase.
Enzymes--Membrane-bound aminopeptidase P was purified to homogeneity from bovine lung (14) and from rat lung. Partially purified membrane-bound aminopeptidase P from human lung was obtained by treatment of lung microsomes with phosphatidylinositol-specific phospholipase C (B. thuringiensis) (ICN, Costa Mesa, Calif.) followed by centrifugation as described previously (14). Membrane dipeptidase was purified from rat lung microsomes (manuscript in preparation). Recombinant E. coli aminopeptidase P (22) and purified lamb kidney prolyl oligopeptidase (23) were generally supplied by Dr. Tadashi Yoshimoto (Nagasaki University). Purified porcine kidney prolidase and purified porcine kidney aminopeptidase M was obtained from Sigma (St. Louis, Mo.).
Enzyme Kinetics--Aminopeptidase P activity was determined by measuring the release of arginine from Arg-Pro-Pro by a fluorescent assay described previously (14). […] Each mixture was run in duplicate. Aliquots were removed from each incubation mixture at various times and assayed for the amount of arginine present to determine the reaction velocity. In general, reaction velocities were calculated from data representing less than 20% cleavage of substrate. Ki and Ki ' (=αKi) were determined from plots of 1/v versus concentration of inhibitor "i" (26) and S/v versus concentration of inhibitor "i" (27), respectively. These parameters were also determined from the slope replot and 1/v-intercept replot, respectively, of the 1/v versus 1/S plot (28). See e.g., FIG. 1B. The values from the two treatments of the data were averaged for each experiment. Experiments for each enzyme preparation were performed twice and the results averaged.

[2] = molecular target: dipeptidyl-peptidase I-like activity; assay: Specificity of apstatin: dipeptidyl-peptidase I-like activity; format: biochemical; settings: detergent extract of bovine lung; Gly-Phe-β-NA, pH 6.5, HPLC-2
Experimental: Specificity of Apstatin--Apstatin was assayed for its ability to inhibit several other peptidases. […] Unless otherwise indicated, the source of each enzyme activity was a detergent extract of bovine lung prepared as described in (12-13). Activities were determined by a modification of the fluorescent assay described above (indicated by "FLUO") or by HPLC separation and quantitation of reaction products using the method described in (12) (method "HPLC-1") or the method described below (method "HPLC-2"). […]

Q: How did the IC50 ([1]; bovine lung aminopeptidase P, cleavage of 0.5 μM Arg-Pro-Pro in 0.1M Hepes, pH 8.0 at 37° C.) turn out when `C[C@H](NC(=O)[C@@H]1CCCN1C(=O)[C@@H]1CCCN1C(=O)[C@@H](O)[C@H](N)Cc1ccccc1)C(N)=O` [apstatin, N-[(2S, 3R)-3-amino-2-hydroxy-4-phenylbutanoyl]-L-prolyl-L-prolyl-Lalaninamide] was run?
A: 9.4 µM

Q: What about the type of inhibition ([1]; bovine lung aminopeptidase P, slope and 1/v-axis intercept replots) of the same compound?
A: linear mixed-type

Q: What about the “α (αKi = equilibrium constant for enzyme-inhibitor binding at infinite substrate concentration)” value ([1]; bovine lung, purified membrane-bound form) of the same compound?
A: 4.2

Q: And the Ki ([1]; bovine lung, purified membrane-bound form, substrate Arg-Pro-Pro, 0.1 M Hepes pH 8.0, 39° C.)?
A: 7.8 µM

Q: What about the IC50 [2] of the same compound?
A: > 800 µM
